# Measured values: the supplement of paper PMC13380429
# Assays:
# Details in all cases: 72 h
# Caco-2 [1] = assay: cell viability relative to DMSO; higher = less toxic
# Calu-3 [2] = assay: as above
# HepG2 [3] = assay: as above
# U2OS [4] = assay: as above
# Vero E6 [5] = assay: as above
# Caco-2 [6] = assay: relative viability EC50 (midpoint between 100% and the lowest measured viability); higher = less toxic
# Calu-3 [7] = assay: as above
# HepG2 [8] = assay: as above
# U2OS [9] = assay: as above
# Vero E6 [10] = assay: as above
# Caco-2 [11] = assay: drug sensitivity score (DSS) for viability; higher = more toxic; extreme values may be limits of the assay
# Calu-3 [12] = assay: as above
# HepG2 [13] = assay: as above
# U2OS [14] = assay: as above
# Vero E6 [15] = assay: as above
Structure (SMILES),cell viability (Caco-2 [1]; 1 nM) [%],cell viability (Caco-2 [1]; 10 nM) [%],cell viability (Caco-2 [1]; 100 nM) [%],cell viability (Caco-2 [1]; 1000 nM) [%],cell viability (Caco-2 [1]; 10000 nM) [%],cell viability (Calu-3 [2]; 1 nM) [%],cell viability (Calu-3 [2]; 10 nM) [%],cell viability (Calu-3 [2]; 100 nM) [%],cell viability (Calu-3 [2]; 1000 nM) [%],cell viability (Calu-3 [2]; 10000 nM) [%],cell viability (HepG2 [3]; 1 nM) [%],cell viability (HepG2 [3]; 10 nM) [%],cell viability (HepG2 [3]; 100 nM) [%],cell viability (HepG2 [3]; 1000 nM) [%],cell viability (HepG2 [3]; 10000 nM) [%],cell viability (U2OS [4]; 1 nM) [%],cell viability (U2OS [4]; 10 nM) [%],cell viability (U2OS [4]; 100 nM) [%],cell viability (U2OS [4]; 1000 nM) [%],cell viability (U2OS [4]; 10000 nM) [%],cell viability (Vero E6 [5]; 1 nM) [%],cell viability (Vero E6 [5]; 10 nM) [%],cell viability (Vero E6 [5]; 100 nM) [%],cell viability (Vero E6 [5]; 1000 nM) [%],cell viability (Vero E6 [5]; 10000 nM) [%],relative viability EC50 (Caco-2 [6]) [µM],relative viability EC50 (Calu-3 [7]) [µM],relative viability EC50 (HepG2 [8]) [µM],relative viability EC50 (U2OS [9]) [µM],relative viability EC50 (Vero E6 [10]) [µM],drug sensitivity score (Caco-2 [11]),drug sensitivity score (Calu-3 [12]),drug sensitivity score (HepG2 [13]),drug sensitivity score (U2OS [14]),drug sensitivity score (Vero E6 [15])
NC(=O)c1ccc([N+](=O)[O-])cc1Cl [aklomide],95.9,95.3,100,92.2,98.1,112,106,112,98.9,103,95.5,95.9,100,91,102,107,103,99.4,101,103,98.4,98.4,95.8,96.6,104,> 10,> 10,> 10,> 10,> 10,0,0,0,0,0
CCCCN1CCC(CNC(=O)c2c3n(c4ccccc24)CCCO3)CC1 [piboserod],96,99.8,96.9,99,93.4,108,91.9,102,104,83,94.2,106,106,98.5,95.5,97.7,98.7,97.7,101,91.9,93.1,92.7,95,91.4,95.9,> 10,> 10,> 10,> 10,> 10,0,0.2,0,0,0
COc1ccccc1-c1c[nH]c2ncc(-c3cncc(C(=O)N(C)C)c3)cc12 [PPY-A],88.4,119,102,106,102,108,96.4,95.3,115,126,120,96.9,92.1,114,99.7,95.4,112,101,101,96.4,95.4,100,100,101,112,> 10,> 10,> 10,> 10,> 10,0,0,0,0,0
CN(CC[C@@H](Oc1ccc(-c2ccccc2)cc1)c1ccc(F)cc1)CC(=O)O [ALX-5407],105,98.9,102,94.8,95.6,103,85.9,98.6,98.3,104,102,108,92.7,95.7,96.7,98.3,96.6,99,93.8,98.7,101,99.1,97.7,100,96.4,> 10,> 10,> 10,> 10,> 10,0,0,0,0,0
C1CCC(NC2CCCCC2)CC1 [dicyclohexylamine],98.7,104,94.6,106,94.1,96.6,99,87.8,97.8,98,99,104,97.5,111,104,99.2,99.5,99.4,104,97.7,99.1,96.3,97.3,100,97.5,> 10,> 10,> 10,> 10,> 10,0,0,0,0,0
CC(=O)NCCCOc1ccc(C(=O)N2CCC(N3C(=O)CCc4ccccc43)CC2)cc1,104,90.1,76,104,88.6,81,84.4,77.8,86.9,79,113,92.3,116,112,107,98,100,97.3,101,95.5,105,92.6,95.6,104,106,> 10,> 10,> 10,> 10,> 10,0,0,0,0,0
Ic1cc(-c2ccccc2)ncn1 [4-iodo-6-phenylpyrimidine],93.8,101,104,97.5,98,100,105,105,87.2,104,100,107,96.8,105,98.8,102,97.2,102,99.1,102,105,102,97.7,105,95.5,> 10,> 10,> 10,> 10,> 10,0,0,0,0,0
COc1ccc(Cl)cc1[C@]1(F)C(=O)Nc2cc(C(F)(F)F)ccc21 [flindokalner],95.2,102,97.6,101,88.7,103,91.3,96.3,96.9,93.9,103,96.3,103,100,95.2,96.9,102,97.3,97.8,95.2,97.7,96.1,98.8,95.6,101,> 10,> 10,> 10,> 10,> 10,0,0,0,0,0
Oc1c(Cl)cc(Cl)cc1Sc1cc(Cl)cc(Cl)c1O [bithionol],104,88.5,99,86,89.2,92.6,95.7,102,97.3,111,101,89.3,93,83.1,86.3,103,93.8,104,98.6,104,97.3,107,89.9,94.8,96.4,> 10,> 10,> 10,> 10,> 10,0.4,0,1.7,0,0
CC(=O)C(=Cc1cc(O)c(O)c([N+](=O)[O-])c1)C(C)=O [nitecapone],94.7,92.1,99.9,95.7,96.4,97.5,93.7,105,109,110,103,94,96.5,98.4,93.7,98.8,102,96.6,103,95.6,109,107,105,98.7,105,> 10,> 10,> 10,> 10,> 10,0,0,0,0,0
COc1ccnc(C[S+]([O-])c2nc3cc(OC(F)F)ccc3[nH]2)c1OC (stereo not given) [pantoprazole],99.5,104,98.7,103,89.4,99,99.1,98.4,95.9,94.8,106,107,111,99.2,117,109,105,102,101,99.3,95.4,97.1,91.7,91,99.2,> 10,> 10,> 10,> 10,> 10,0,0,0,0,0
